Test results taken from patent US20080161232A1, “C5a Receptor Antagonist” (JERINI AG, priority 2005, published 2008).
Positions of bridges follow the written chain, without caps; N, C: chain ends. Non-standard residues stand in square brackets, D forms with d. Residues, ends and D or L forms follow the SMILES beside them. *: point of attachment. Dip = N[C@H](C(=O)O)C(c1ccccc1)c1ccccc1; Bta = N[C@@H](Cc1csc2ccccc12)C(=O)O; Hydrocinnamoyl = O=C(CCc1ccccc1)*; 2Thi = N[C@@H](Cc1cccs1)C(=O)O; Cha = N[C@@H](CC1CCCCC1)C(=O)O; dCha = N[C@H](CC1CCCCC1)C(=O)O; AllylGly = C=CC[C@H](N)C(=O)O; Pip = O=C(O)[C@@H]1CCCCN1; Nle = CCCC[C@H](N)C(=O)O; Orn = NCCC[C@H](N)C(=O)O; Aze = O=C(O)[C@@H]1CCN1

B1: hrC5a: hrC5a (Sigma), added for stimulation of enzyme release (protein, UniProt P01031 678-751, looked up)
C5a anaphylatoxin: TLQKKIEEIAAKYKHSVVKKCCYDGACVNNDETCEQRAARISLGPRCIKAFTECCVVASQLRANISHKDMQLGR
modifications: C5a anaphylatoxin
notes: hrC5a (Sigma), added for stimulation of enzyme release

Key:
human C5aR(CD88) [1] = target: T1, human C5aR(CD88) (Homo sapiens, UniProt P21730); assay: Determination of EC50-values in an enzyme release assay (agonistic activity); assay type: cell-based; details: for EC50: agonistic activity, no C5a added, read-out: EC50; for agonistic activity (in words): cellular assay, up to a concentration of at least 1430 nM
T1 construct: expressed in transfected cells; host or cells: rat basophilic leukemia cells (RBL)
T1 sequence (P21730 1-350): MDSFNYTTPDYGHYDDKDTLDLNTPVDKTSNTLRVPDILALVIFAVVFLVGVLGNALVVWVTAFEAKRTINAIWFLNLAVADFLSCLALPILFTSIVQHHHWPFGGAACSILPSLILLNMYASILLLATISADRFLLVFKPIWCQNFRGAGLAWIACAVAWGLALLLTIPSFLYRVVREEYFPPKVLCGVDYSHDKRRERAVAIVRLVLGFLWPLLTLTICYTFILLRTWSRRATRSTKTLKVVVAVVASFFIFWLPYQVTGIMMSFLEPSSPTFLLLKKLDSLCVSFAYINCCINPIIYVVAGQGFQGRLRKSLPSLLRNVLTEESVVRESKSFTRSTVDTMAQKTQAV
Experimental: The assay procedure was described by Kohl (Kohl 1997 The Anaphylatoxins. In: Dodds, A. W., Sim, R. B. (Eds.), Complement: A Practical Approach. Oxford, pp. 135-163). Basophilic leukemia cells from rats (RBL), which express the human C5aR(CD88), were cultivated in DMEM with 10% fetal bovine serum, 100 U/ml penicillin, 100 μg/ml streptomycin and 2 mM glutamine (all components of the media from Biochrome, Berlin) to confluence at 37° C. and 10% CO2. The following specifications refer to single cell culture flask having a surface of 75 cm^2. Medium was decanted from cells. Cells were washed with 10 ml PBS (Dulbecco's PBS, Biochrome) and subsequently overlayed with 3 ml Cell Dissociation Solution (CDS, Sigma). Cells were incubated for 1 min at room temperature. Subsequently, CDS was removed and the cells were further incubated for 10-15 min at 37° C. for dissociation. In the assay, 20 μl of the solution containing the compound to be tested were used. This solution should not contain more than 2.8% DMSO. For the dilution process, the compounds were diluted in ⅓ or ½ steps. To 20 μl compound solution 75 μl of the RBL-cells were added, which were treated as follows: after dissociation cells were detached and warmed at 37° C. in 10 ml HAG-CM (20 mM HEPES; 125 mM NaCl, 5 mM KCl, 1 mM CaCl2, 1 mM MgCl2, 0,5 mM Glucose, 0,25% BSA. HEPES-preparation: 2.3 g/l HEPES-salt +2.66 g/l HEPES acid). Cells were counted and centrifuged (200×g, 10 min). The cell pellet was resuspended in preheated HAG-CM (i.e. Hepes-buffer NaCl-glucose-solution with calcium and magnesium), and the cell density was adjusted to 2×10^6 cells/ml. The cells were incubated at 37° C. for 5 min. Per ml cell suspension 27 μl of a cytochalasin B-solution were added (100 μg/ml in DMSO, Sigma). The cells were incubated for further 3 min at 37° C. 75 μl of the cell suspension were added to 20 μl compound solution leading to a volume of 95 μl per well. After incubation of the cells for 10 min at 37° C. 10 μl hrC5a (10.5 nM in HAG-CM, Sigma) per well were added. The cells were incubated for additional 5 min at 37° C. The mtp was then transferred to ice and centrifuged for 3 min at 4° C. with 1200×g. 75 μl of the supernatant were added to 100 μl substrate-solution (2.7 mg/ml p-nitrophenyl-N-acetyl-β-D-glucosaminide (Sigma) in 42.5 mM Na-acetate pH 4.5). The mtp was incubated for further 60 min at 37° C. 75 μl 0.4 M glycine pH 10.4 were added per well. The mtp was transferred into a reader and the absorption at 405 nm was measured. IC50-values were obtained following the equation; y=((A-D)/(1+(x/C)^B))+D.
Determination of EC50-Values in an Enzyme Release Assay
The determination of EC50-values was performed according to the procedure given in example II, with the exception that 30 μl of the test compound need to be mixed with 75 μl of the cell suspension mentioned in example 11. Neither preincubation nor addition of C5a for stimulation of enzyme release is needed.

human C5aR(CD88) [2] = target: T1, human C5aR(CD88); assay: Determination of the IC50 value in an enzyme release assay (functional assay, antagonistic activity); assay type: cell-based; details: for IC50: antagonistic activity, IC50 group in enzyme release assay, RBL cells expressing human C5aR(CD88), read-out: activity (group); for inhibitory activity (in words): functional assay of example 11, noteworthy = IC50 less than 200 nM

Molecule | EC50 (human C5aR(CD88) [1]) [µM] | agonistic activity (in words) (human C5aR(CD88) [1]) | IC50 (human C5aR(CD88) [2]) [µM] | inhibitory activity (in words) (human C5aR(CD88) [2]) | inhibitory activity (in words) (human C5aR(CD88) [2]; listed as Ac-Phe-[Orn-Pro-cha-Trp-Eaf])
CCCC[C@@H]1NC(=O)[C@H](Cc2c[nH]c3ccccc23)NC(=O)[C@@H](CC2CCCCC2)NC(=O)[C@@H]2CCCN2C(=O)[C@@H](NC(=O)[C@H](Cc2ccccc2)NC(=O)CON=CC(O)C(O)C(O)C(O)CO)CCCNC1=O (single isomer, unassigned) [Compound 3, HOCH2(CHOH)4—C═N—O—CH2—CO-Phe-[Orn-Pro-cha-Trp-Nle]] | > 1.43 | pure antagonists | 0.05 to 0.2 | noteworthy inhibitory activity | –
CC(=O)N[C@@H](Cc1ccccc1)C(=O)N[C@@H](CCCN)C(=O)N[C@H](CC1CCCCC1)C(=O)N[C@H](CC1CCCCC1)C(=O)N[C@@H](Cc1csc2ccccc12)C(=O)N[C@@H](Cc1ccccc1)C(N)=O [Ac-Phe-Orn-cha-cha-Bta-Phe-NH2] (Ac-F[Orn][dCha][dCha][Bta]F-NH2) | – | pure antagonists | – | – | –
C=CC[C@@H]1NC(=O)[C@H](Cc2c[nH]c3ccccc23)NC(=O)[C@@H](CC2CCCCC2)NC(=O)[C@@H]2CCCN2C(=O)[C@@H](NC(=O)[C@H](Cc2ccccc2)NC(C)=O)CCCNC1=O [Compound 33, Ac-Phe-[Orn-Pro-cha-Trp-Eaf]] (Ac-F[Orn]P[dCha]W[AllylGly]; lactam 2-C) | > 1.43 | pure antagonists | 0.005 to 0.01 | without significant loss of activity | noteworthy inhibitory activity
CCCC[C@@H]1NC(=O)[C@H](Cc2c[nH]c3ccccc23)NC(=O)[C@@H](CC2CCCCC2)NC(=O)[C@@H]2CCCN2C(=O)[C@@H](NC(=O)CCc2ccccc2)CCCNC1=O [Compound 41, Ph-CH2—CH2—CO-[Orn-Pro-cha-Trp-Nle]] (Hydrocinnamoyl-[Orn]P[dCha]W[Nle]; lactam 1-C) | > 1.43 | pure antagonists | 0.01 to 0.02 | noteworthy inhibitory activity | –
CCCC[C@@H]1NC(=O)[C@H](Cc2c[nH]c3ccccc23)NC(=O)[C@@H](CC2CCCCC2)NC(=O)[C@H](CO)NC(=O)[C@@H](NC(=O)[C@@H](N)Cc2ccccc2)CCCNC1=O [Compound 44, H-Phe-[Orn-Ser-cha-Trp-Nle]] (H-F[Orn]S[dCha]W[Nle]; lactam 2-C) | – | pure antagonists | – | – | –
CC(=O)N[C@@H](Cc1ccccc1)C(=O)N[C@@H](CCCN)C(=O)N1CCCC[C@H]1C(=O)N[C@H](CC1CCCCC1)C(=O)N[C@@H](Cc1c[nH]c2ccccc12)C(=O)N[C@@H](Cc1ccccc1)C(N)=O [Compound 55, Ac-Phe-Orn-Pip-cha-Trp-Phe-NH2] (Ac-F[Orn][Pip][dCha]WF-NH2) | > 100 | pure antagonists | 0.02 to 0.05 | – | –
CC(=O)N[C@@H](Cc1ccccc1)C(=O)N[C@@H](CCCN)C(=O)N1CCC[C@H]1C(=O)N[C@H](CC1CCCCC1)C(=O)N[C@@H](Cc1c[nH]c2ccccc12)C(=O)N[C@@H](Cc1ccccc1)C(N)=O [Compound 61, Ac-Phe-Orn-Pro-cha-Trp-Phe-NH2] (Ac-F[Orn]P[dCha]WF-NH2) | > 100 | pure antagonists | – | – | –
CC(=O)N[C@@H](Cc1ccccc1)C(=O)N[C@@H](CCCN)C(=O)N1CCC[C@H]1C(=O)N[C@H](CC1CCCCC1)C(=O)N[C@@H](Cc1csc2ccccc12)C(=O)N[C@@H](Cc1ccccc1)C(N)=O [Compound 62, Ac-Phe-Orn-Pro-cha-Bta-Phe-NH2] (Ac-F[Orn]P[dCha][Bta]F-NH2) | > 100 | pure antagonists | 0.02 to 0.05 | – | –
CC(=O)N[C@@H](Cc1cccs1)C(=O)N[C@@H](CCCN)C(=O)N1CCCC[C@H]1C(=O)N[C@H](CC1CCCCC1)C(=O)N[C@@H](Cc1csc2ccccc12)C(=O)N[C@@H](Cc1ccccc1)C(N)=O [Compound 67, Ac-Thi-Orn-Pip-cha-Bta-Phe-NH2] (Ac-[2Thi][Orn][Pip][dCha][Bta]F-NH2) | > 100 | pure antagonists | 0.02 to 0.05 | – | –
CC(=O)N[C@H](C(=O)N[C@@H](CCCN)C(=O)N1CCC[C@H]1C(=O)N[C@H](CC1CCCCC1)C(=O)N[C@@H](Cc1c[nH]c2ccccc12)C(=O)N[C@@H](Cc1ccccc1)C(N)=O)C(c1ccccc1)c1ccccc1 [Compound 71, Ac-Ebw-Orn-Pro-cha-Trp-Phe-NH2] (Ac-[Dip][Orn]P[dCha]WF-NH2) | > 100 | pure antagonists | 0.2 to 2 | – | –
CC(=O)N[C@@H](Cc1ccccc1)C(=O)N[C@@H](CCCN)C(=O)N1CC[C@H]1C(=O)N[C@H](CC1CCCCC1)C(=O)N[C@@H](Cc1c[nH]c2ccccc12)C(=O)N[C@@H](Cc1ccccc1)C(N)=O [Compound 83, Ac-Phe-Orn-Aze-cha-Trp-Phe-NH2] (Ac-F[Orn][Aze][dCha]WF-NH2) | > 100 | pure antagonists | 0.02 to 0.05 | – | –
CC(=O)N[C@@H](Cc1ccccc1)C(=O)N[C@@H](Cc1c[nH]c2ccccc12)C(=O)N1CCC[C@H]1C(=O)N[C@H](CC1CCCCC1)C(=O)N[C@@H](Cc1c[nH]c2ccccc12)C(=O)N[C@@H](Cc1ccccc1)C(N)=O [Compound 84, Ac-Phe-Trp-Pro-cha-Trp-Phe-NH2] (Ac-FWP[dCha]WF-NH2) | > 100 | pure antagonists | 0.05 to 0.2 | – | –
CC(=O)N[C@@H](Cc1ccccc1)C(=O)N[C@@H](CCCNC(=N)N)C(=O)N1CCC[C@H]1C(=O)N[C@H](CC1CCCCC1)C(=O)N[C@@H](Cc1c[nH]c2ccccc12)C(=O)N[C@@H](Cc1ccccc1)C(N)=O [Compound 88, Ac-Phe-Arg-Pro-cha-Trp-Phe-NH2] (Ac-FRP[dCha]WF-NH2) | > 100 | pure antagonists | 0.02 to 0.05 | – | –
N[C@@H](Cc1ccccc1)C(=O)N[C@H]1CCCNC(=O)[C@H](Cc2ccccc2)NC(=O)[C@H](Cc2c[nH]c3ccccc23)NC(=O)[C@@H](CC2CCCCC2)NC(=O)[C@@H]2CCCN2C1=O [H-Phe-[Orn-Pro-cha-Trp-Phe]] (H-F[Orn]P[dCha]WF; lactam 2-C) | – | pure antagonists | – | – | –
CC(=O)N[C@@H](Cc1ccccc1)C(=O)N[C@H]1CCCNC(=O)[C@H](CCCN=C(N)N)NC(=O)[C@H](C)NC(=O)[C@@H](CC2CCCCC2)NC(=O)[C@@H]2CCCN2C1=O [compound 48] (Ac-F[Orn]P[dCha]AR; lactam 2-C) | – | – | > 2 | – | –
CC(=O)N[C@@H](Cc1ccccc1)C(=O)N[C@@H](CCCCN)C(=O)N[C@@H](C)C(=O)N[C@@H](CC1CCCCC1)C(=O)N[C@@H](C)C(=O)N[C@@H](CC(C)C)C(=O)N[C@H](C)C(=O)N[C@@H](Cc1ccc(O)cc1)C(=O)O [compound 60] (Ac-FKA[Cha]AL[dA]Y-OH) | – | – | 0.2 to 2 | – | –
Ac-Phe-[Orn-Hyp(CONHCH2COH(OH)CH2OH)-cha-Trp-Phe] | – | – | – | noteworthy inhibitory activity | –
B1 | 0.0024 | – | – | – | –
